Square brackets hold non-standard residues; d marks the D form. Peptide text beside a SMILES is read from it. * marks the point of attachment. Myristoyl = CCCCCCCCCCCCCC(=O)*; Nle = CCCC[C@H](N)C(=O)O
How the values were obtained:
rat PrRP receptor = molecular target: T1, rat PrRP receptor (Rattus norvegicus, UniProt Q64121); assay: Competitive binding in RC-4B/C rat pituitary cells (125I-rat PrRP31); details: for Binding affinity: RC-4B/C cells, statements referring to Table 2
T1 construct: host or cells: RC-4B/C rat pituitary cell line
T1 sequence (Q64121 1-370): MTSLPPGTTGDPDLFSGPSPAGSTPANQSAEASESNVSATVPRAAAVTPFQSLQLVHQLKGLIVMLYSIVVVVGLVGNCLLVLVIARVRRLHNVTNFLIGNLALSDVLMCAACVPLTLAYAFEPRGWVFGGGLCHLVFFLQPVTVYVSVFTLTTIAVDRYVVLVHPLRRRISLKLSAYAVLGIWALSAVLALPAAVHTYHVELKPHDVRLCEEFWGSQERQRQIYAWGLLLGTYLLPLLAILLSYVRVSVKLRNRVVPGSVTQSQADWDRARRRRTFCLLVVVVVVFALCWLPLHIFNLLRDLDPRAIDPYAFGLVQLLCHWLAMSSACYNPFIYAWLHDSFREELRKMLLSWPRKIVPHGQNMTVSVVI
Method in brief: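 Displacement of rat 125I-PrRP31 ([…]) by test analogs, 10^−11–10^−4 mol·l^−1, on whole RC-4B/C cells, 60 min RT. Bound counts measured by γ-counter in duplicate, ≥3 repeats, analyzed by nonlinear one-site binding regression.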

C57BL/6 mice = assay: Food intake in fasted mice after SC injection; assay type: in vivo; details: for Effect on food intake in mice: SC
Procedure: NMRI mice, C57BL/6 mice, and Wistar rats (AnLab, Prague, Czech Republic) were housed in a temperature of 23° C. and a daily cycle of 12 h light and dark (light from 6:00). They were given ad libitum water and a standard chow diet that contained 25, 9 and 66% of calories of protein, fat and carbohydrate respectively. Energy content of the feed was 3.4 kcal/g (St-1, Mlýn Kocanda, Czech Republic). Db/db mice and their controls (C57BL/6 background) were obtained from Taconic (Denmark), housed under the same conditions as described above, and fed by Altromin (Taconic, Denmark). ZDF-Lepr^fa/Crl, diabetic fa/fa male rats were obtained from Charles River (France), housed under same conditions as described above, and fed with a Purina 5008 diet (IPS Product Supplies Limited, UK). All experiments followed the ethical guidelines for animal experiments and the law of the Czech Republic Nr. 246/1992.
In experiments with C57BL/6 mice or Wistar rats, food intake was measured with overnight fasted animals in individual cages. Food was withdrawn 17 hours prior to injection of lipidated analog of prolactin releasing peptide (PrRP); free access to water was maintained. The administration of either saline, PrRP, or lipidated analogs was performed by SC injection at doses of 1-10 mg/kg (which corresponded to a volume of 0.2 ml/mouse and 0.1 ml/100 g weight of rat). Fifteen minutes after the lipidated analog of prolactin releasing peptide (PrRP) administration, the mice were given pre-weighed food. The food was then weighed every 30 minutes for 5-10 hours. The administration of each dose was performed at least twice, and each group of mice consisted of at least 6 mice.

Compound: CCCC[C@H](NC(=O)CNC(=O)[C@H](CCCNC(=N)N)NC(=O)[C@@H]1CCCN1C(=O)[C@H](Cc1ccc(O)cc1)NC(=O)[C@H](Cc1c[nH]c2ccccc12)NC(=O)[C@H](Cc1c[nH]cn1)NC(=O)[C@@H](NC(=O)[C@H](CC(=O)O)NC(=O)[C@H](C)NC(=O)[C@@H]1CCCN1C(=O)[C@H](CCCNC(=N)N)NC(=O)[C@H](CCC(N)=O)NC(=O)[C@H](Cc1c[nH]cn1)NC(=O)[C@@H](N)CO)[C@@H](C)O)C(=O)N[C@@H](Cc1ccccc1)C(=O)N1CCC[C@H]1C(=O)N[C@H](C(=O)N[C@H](C(=O)NCC(=O)N[C@@H](CCCNC(=N)N)C(=O)N[C@H](C(=O)N[C@H](C(=O)N[C@@H](C)C(=O)N[C@@H](CCCNC(=N)N)C(=O)N[C@@H](CC(N)=O)C(=O)NCC(=O)N[C@@H](CCC(=O)O)C(=O)N[C@H](C(=O)N[C@@H](CO)C(=O)N[C@@H](CCCNC(=N)N)C(N)=O)C(C)C)[C@@H](C)O)[C@@H](C)CC)[C@@H](C)CC)[C@@H](C)O [Analog 19] (H-SHQRPADTHWYPRG[Nle]FPTIGRITARNGEVSR-NH2)
- Binding affinity (rat PrRP receptor): very low binding affinity
- Effect on food intake in mice (C57BL/6 mice): no effect

Compound: CCCCCCCCCCCCCC(=O)N[C@@H](CO)C(=O)N[C@@H](Cc1c[nH]cn1)C(=O)N[C@@H](CCC(N)=O)C(=O)N[C@@H](CCCNC(=N)N)C(=O)N1CCC[C@H]1C(=O)N[C@@H](C)C(=O)N[C@@H](CC(=O)O)C(=O)N[C@H](C(=O)N[C@@H](Cc1c[nH]cn1)C(=O)N[C@@H](Cc1c[nH]c2ccccc12)C(=O)N[C@@H](Cc1ccc(O)cc1)C(=O)N1CCC[C@H]1C(=O)N[C@@H](CCCNC(=N)N)C(=O)NCC(=O)N[C@@H](CCCC)C(=O)N[C@@H](Cc1ccccc1)C(=O)N1CCC[C@H]1C(=O)N[C@H](C(=O)N[C@H](C(=O)NCC(=O)N[C@@H](CCCNC(=N)N)C(=O)N[C@H](C(=O)N[C@H](C(=O)N[C@@H](C)C(=O)N[C@@H](CCCNC(=N)N)C(=O)N[C@@H](CC(N)=O)C(=O)NCC(=O)N[C@@H](CCC(=O)O)C(=O)N[C@H](C(=O)N[C@@H](CO)C(=O)N[C@@H](CCCNC(=N)N)C(N)=O)C(C)C)[C@@H](C)O)[C@@H](C)CC)[C@@H](C)CC)[C@@H](C)O)[C@@H](C)O [Analog 20] (Myristoyl-SHQRPADTHWYPRG[Nle]FPTIGRITARNGEVSR-NH2)
- Binding affinity (rat PrRP receptor): very low binding affinity
- Effect on food intake in mice (C57BL/6 mice): no effect

Compound: CCCCCCCCCCCCCC(=O)N[C@H](Cc1ccccc1)C(=O)N[C@H](CCCNC(=N)N)C(=O)NCC(=O)N[C@H](C(=O)N1CCC[C@H]1C(=O)N[C@@H](CCCNC(=N)N)C(=O)N[C@H](C(=O)NCC(=O)N[C@@H](CCCNC(=N)N)C(=O)NCC(=O)N[C@H](C(=O)N[C@@H](Cc1ccc(O)cc1)C(=O)N[C@@H](Cc1c[nH]c2ccccc12)C(=O)N[C@@H](C)C(=O)N1CCC[C@H]1C(=O)N[C@@H](CC(N)=O)C(=O)N[C@H](C(=O)N[C@@H](CC(=O)O)C(=O)N1CCC[C@H]1C(=O)N[C@H](C(N)=O)[C@@H](C)O)[C@@H](C)CC)[C@@H](C)O)[C@@H](C)CC)C(C)C [Analog 26] (Myristoyl-[dF][dR]GVPRIGRGTYWAPNIDPT-NH2)
- Binding affinity (rat PrRP receptor): very low binding affinity
- % of PrRP31, RC-4B/C rat pituitary cells (rat PrRP receptor; affinity relative to PrRP31): 1.4%
- Food intake in mice % of saline-treated group (C57BL/6 mice; 5 mg/kg SC, 45 min after injection): 100%
- Effect on food intake in mice (C57BL/6 mice): no effect

Source: patent US10350271B2, “Lipidated peptides for lowering blood glucose” (USTAV ORGANICKE CHEMIE A BIOCHEMIE AKADEMIE VED CR, V.V.I., priority 2014, dated 2019)
